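Step 1: Grow cells in 96-well plates. Step 2: Expose to compound for 48 hours at 5 concentrations. Step 3: Interpolate endpoints linearly; if unreached, use highest concentration. Here, GI50 denotes the concentration required for 50% inhibition of growth.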 Active and inactive are the calls of the source. Rule as the data show it: active = GI50 up to about 1.1 µM and inactive = higher.
Legend:
Assay in all cases: NCI tumour cell line growth inhibition, 48 h
[1] = test system: NCI-H226
[2] = test system: HOP-62
[3] = test system: ACHN
[4] = test system: OVCAR-3
[5] = test system: M14
[6] = test system: Malme-3M
[7] = test system: SN12C
[8] = test system: BT-549
[9] = test system: UACC-62
[10] = test system: LOX IMVI
[11] = test system: SR
[12] = test system: RPMI-8226
[13] = test system: DU-145
[14] = test system: SNB-19
[15] = test system: CCRF-CEM
[16] = test system: SF-295
[17] = test system: HOP-92
[18] = test system: MCF7

Measured: GI50

Cc1cccc(/N=N/C(=O)NNc2cccc(C)c2C)c1C
inactive: [1] 38.8 µM | [2] 20.7 µM | [3] 41.7 µM | [4] 45.4 µM | [5] 41.8 µM | [6] 21.7 µM | [7] 53.1 µM | [8] 23.3 µM | [9] 29.5 µM | [10] 25.8 µM | [11] 33.2 µM | [12] 29.4 µM | [13] 37 µM | [14] 45.8 µM | [15] > 10 µM

CCCCCCCCCCCCOCC(COP(=O)(O)OCCN=[N+]=[N-])OC(=O)CCCCCCCCCCC (centres undefined)
inactive: [16] > 100 µM | [2] > 100 µM | [3] > 100 µM | [4] > 100 µM | [5] > 100 µM | [6] > 100 µM | [7] > 100 µM | [17] > 100 µM | [9] > 100 µM | [18] > 100 µM | [12] > 100 µM | [13] > 100 µM | [14] > 100 µM

O=C(O)[C@@H]1CCS(=O)(=O)N1
inactive: [16] > 100 µM | [2] > 100 µM | [3] > 100 µM | [4] > 100 µM | [5] > 100 µM | [6] > 100 µM | [7] > 100 µM | [9] > 100 µM | [18] > 100 µM | [10] > 100 µM | [11] > 100 µM | [13] > 100 µM | [14] > 100 µM | [15] > 100 µM

CC1C[C@]2(C)C(NCCN)=Nc3ccccc3[C@@H]2N(C)c2ccccc21 (some centres undefined)
inactive: [16] 17.9 µM | [1] 14.7 µM | [2] 16.1 µM | [3] 16.3 µM | [4] 11.1 µM | [5] 1.9 µM | [6] 3.72 µM | [7] 14.4 µM | [17] 2.3 µM | [9] 13.6 µM | [18] 8.18 µM | [10] 12.7 µM | [11] 2.81 µM | [12] 14.1 µM | [13] 15.1 µM | [14] 13.4 µM | [15] 15.9 µM

COc1ccc(NC(=O)CSc2nc(C)nc3c2sc(=S)n3-c2ccccc2)cc1
inactive: [16] 7.26 µM | [1] 6.85 µM | [2] 5.27 µM | [3] 4.68 µM | [4] 6.15 µM | [5] 8.07 µM | [6] > 10 µM | [7] > 10 µM | [17] 2.11 µM | [9] > 10 µM | [18] 8.11 µM | [10] > 10 µM | [11] > 10 µM | [12] > 10 µM | [13] > 10 µM | [14] > 10 µM | [15] > 10 µM

OCC1OC(c2ccccc2)CC1O (centres undefined)
inactive: [16] > 100 µM | [1] > 100 µM | [3] > 100 µM | [4] > 100 µM | [5] > 100 µM | [7] > 100 µM | [9] > 100 µM | [18] > 100 µM | [10] > 100 µM | [11] > 100 µM | [13] > 100 µM | [14] > 100 µM | [15] > 100 µM

COc1cc(O)c2c(c1)OCC1(Cc3cc(OC)c(OC)cc31)C2=O (centres undefined)
inactive: [16] 30.5 µM | [1] 46 µM | [2] > 100 µM | [3] > 100 µM | [4] 34 µM | [5] > 100 µM | [6] 87.7 µM | [7] > 100 µM | [17] 23.3 µM | [9] 63.2 µM | [18] 31.8 µM | [10] 89.3 µM | [11] 68.7 µM | [12] 37.9 µM | [13] > 100 µM | [14] > 100 µM | [15] > 100 µM

Cc1cc(Cl)ccc1/N=N/C(=O)NNc1ccc(Cl)cc1C
inactive: [1] 16.4 µM | [2] 11.5 µM | [3] 16.1 µM | [4] 17.2 µM | [5] 16.9 µM | [6] 21 µM | [7] 15.4 µM | [8] 15.6 µM | [9] 9.04 µM | [10] 16.9 µM | [11] 22.2 µM | [12] 22.2 µM | [13] 10.7 µM | [14] 17.6 µM | [15] 21.1 µM

O=C(c1ccccc1)N1C(=O)N(c2ccccc2)C(=N/c2ccccc2)/C1=N\c1ccccc1
inactive: [16] > 100 µM | [1] 18 µM | [2] 52.4 µM | [3] 80.7 µM | [6] 69 µM | [7] > 100 µM | [17] 64.1 µM | [9] 4.18 µM | [10] 9.25 µM | [11] 17.8 µM | [12] > 100 µM | [13] > 100 µM | [14] > 100 µM | [15] 50.7 µM

CN(CCCCCl)P(=O)(OCc1ccc([N+](=O)[O-])o1)OCC1OC(n2ccc(N)nc2=O)C(O)C1O (centres undefined)
inactive: [16] 13.9 µM | [1] 11.4 µM | [2] 10.6 µM | [3] 11.7 µM | [4] 2.1 µM | [5] 7.48 µM | [6] 1.16 µM | [7] 3.52 µM | [9] 12.9 µM | [18] 1.82 µM | [10] 7.24 µM | [11] 5.87 µM | [12] 1.57 µM | [13] 6.93 µM | [14] 3.21 µM

CC(=O)c1ccc(/N=N/c2ccc3nonc3c2N)cc1
inactive: [16] 83.4 µM | [1] > 100 µM | [2] > 100 µM | [3] > 100 µM | [4] 88.3 µM | [5] 52.8 µM | [6] > 100 µM | [7] > 100 µM | [17] > 100 µM | [9] > 100 µM | [18] > 100 µM | [10] > 100 µM | [11] > 100 µM | [12] > 100 µM | [13] > 100 µM | [14] > 100 µM | [15] > 100 µM

CCOC(=O)c1c(SC(=O)c2ccc(C(C)(C)C)cc2)n(-c2ccccc2)c(=S)n(-c2ccccc2)c1=O
inactive: [16] > 100 µM | [1] > 100 µM | [2] > 100 µM | [3] > 100 µM | [4] > 100 µM | [5] > 100 µM | [6] > 100 µM | [7] > 100 µM | [17] > 100 µM | [9] > 100 µM | [18] > 100 µM | [10] > 100 µM | [11] > 100 µM | [13] > 100 µM | [14] > 100 µM | [15] 29.7 µM

CCNc1ncnc2c1nnn2CC
inactive: [16] 79.6 µM | [1] > 100 µM | [2] > 100 µM | [3] > 100 µM | [4] > 100 µM | [5] > 100 µM | [6] > 100 µM | [7] > 100 µM | [17] 72.1 µM | [9] > 100 µM | [18] > 100 µM | [10] > 100 µM | [12] > 100 µM | [13] > 100 µM | [14] > 100 µM | [15] > 100 µM

— ChEMBL document CHEMBL1201862, “PubChem BioAssay data set” (2004)
